Test results taken from ChEMBL document CHEMBL3352350, “Syntheses and structure-activity relationships in cytotoxicities of 13-substituted quaternary coptisine derivatives” (Eur J Med Chem, 2014).

Key:
[1] = Cytotoxicity against human C33A cells assessed as growth inhibition rate after 96 hrs by MTT assay; assay type: functional, cell-based; conditions: C-33-A
[2] = Cytotoxicity against human Bel7402 cells assessed as growth inhibition rate at 0.1 to 100 umol/L after 96 hrs by MTT assay; assay type: functional, Bel-7402
[3] = Cytotoxicity against human HCT8 cells assessed as growth inhibition rate at 0.1 to 100 umol/L after 96 hrs by MTT assay; assay type: functional, HCT-8
[4] = tested on: A549; experiment: Cytotoxicity against human A549 cells assessed as growth inhibition rate at 0.1 to 100 umol/L after 96 hrs by MTT assay; assay type: functional
[5] = tested on: A549; experiment: Cytotoxicity against human A549 cells assessed as growth inhibition rate after 96 hrs by MTT assay; assay type: functional, cell-based; conditions: A549, 96 h
[6] = Cytotoxicity against human C33A cells assessed as growth inhibition rate at 0.1 to 100 umol/L after 96 hrs by MTT assay; assay type: functional, C-33-A
[7] = Cytotoxicity against human HCT8 cells assessed as growth inhibition rate after 96 hrs by MTT assay; assay type: functional, cell-based; conditions: HCT-8, 96 h
[8] = Cytotoxicity against human Bel7402 cells assessed as growth inhibition rate after 96 hrs by MTT assay; assay type: functional, cell-based; conditions: Bel-7402, 96 h
[9] = tested on: C-33-A; experiment: Ratio of 5-fluorouracil IC50 to compound IC50 for human C33A cells assessed as growth inhibition rate after 96 hrs by MTT assay; assay type: functional
[10] = tested on: A549; experiment: Ratio of 5-fluorouracil IC50 to compound IC50 for human A549 cells assessed as growth inhibition rate after 96 hrs by MTT assay; assay type: functional
[11] = tested on: HCT-8; experiment: Ratio of 5-fluorouracil IC50 to compound IC50 for human HCT8 cells assessed as growth inhibition rate after 96 hrs by MTT assay; assay type: functional
[12] = tested on: Bel-7402; experiment: Ratio of 5-fluorouracil IC50 to compound IC50 for human Bel7402 cells assessed as growth inhibition rate after 96 hrs by MTT assay; assay type: functional
[13] = Cytotoxicity against human BGC823 cells assessed as growth inhibition rate after 96 hrs by MTT assay; assay type: functional, cell-based; conditions: BGC-823, 96 h

SMILES | IC50 [1] | growth inhibition (GI) [2] [%] | growth inhibition (GI) [3] [%] | growth inhibition (GI) [4] [%] | IC50 [5] | growth inhibition (GI) [6] [%] | IC50 [7] | IC50 [8] | Ratio IC50 [9] | Ratio IC50 [10] | Ratio IC50 [11] | Ratio IC50 [12] | IC50 [13] [µM]
C1=C2c3cc4c(cc3CCN2Cc2c1ccc1c2OCO1)OCO4 | > 5 µg/mL | 27.27 | 30.88 | 32.09 | > 5 µg/mL | -10.65 | > 5 µg/mL | > 5 µg/mL |  |  |  |  | 
Cc1c2[n+](cc3c4c(ccc13)OCO4)CCc1cc3c(cc1-2)OCO3.[Cl-] | > 5 µg/mL | 2.43 | 35.62 | 42.83 | > 5 µg/mL | -7.22 | > 5 µg/mL | > 5 µg/mL |  |  |  |  | 
CCc1c2[n+](cc3c4c(ccc13)OCO4)CCc1cc3c(cc1-2)OCO3.[Cl-] | > 5 µg/mL | 10.19 | 39.7 | 41.74 | > 5 µg/mL | -7.45 | > 5 µg/mL | > 5 µg/mL |  |  |  |  | 
CCCc1c2[n+](cc3c4c(ccc13)OCO4)CCc1cc3c(cc1-2)OCO3.[Cl-] | > 5 µg/mL | -23.7 | 40.68 | 45.12 | > 5 µg/mL | -7.69 | > 5 µg/mL | > 5 µg/mL |  |  |  |  | 
CCCCc1c2[n+](cc3c4c(ccc13)OCO4)CCc1cc3c(cc1-2)OCO3.[Cl-] | > 5 µg/mL | 21.81 | 32.57 | 32.79 | > 5 µg/mL | -6.66 | > 5 µg/mL | > 5 µg/mL |  |  |  |  | 
CCCCCc1c2[n+](cc3c4c(ccc13)OCO4)CCc1cc3c(cc1-2)OCO3.[Cl-] | > 5 µg/mL | 5.82 | 59.02 | 49.34 | > 5 µg/mL | -5.79 | 6.93 µM | > 5 µg/mL |  |  |  |  | 
CC(C)CCc1c2[n+](cc3c4c(ccc13)OCO4)CCc1cc3c(cc1-2)OCO3.[Cl-] | > 5 µg/mL | -2.18 | 30.75 | 38.49 | > 5 µg/mL | 48.99 | > 5 µg/mL | > 5 µg/mL |  |  |  |  | 
CCCCCCc1c2[n+](cc3c4c(ccc13)OCO4)CCc1cc3c(cc1-2)OCO3.[Cl-] | > 5 µg/mL | 74.26 | 59.24 | 60.71 | 5.57 µM | 52.51 | 6.55 µM | 3.05 µM |  |  |  |  | 
CCCCCCCc1c2[n+](cc3c4c(ccc13)OCO4)CCc1cc3c(cc1-2)OCO3.[Cl-] | 6.94 µM | 86.6 | 61.02 | 71.89 | 2.58 µM | 63.75 | 5.86 µM | 1.92 µM |  |  |  |  | 
CCCCCCCCc1c2[n+](cc3c4c(ccc13)OCO4)CCc1cc3c(cc1-2)OCO3.[Cl-] | 7.31 µM | 89.32 | 65.54 | 73.99 | 1.88 µM | 63.28 | 3.33 µM | 1.43 µM |  |  |  |  | 
CCCCCCCCCc1c2[n+](cc3c4c(ccc13)OCO4)CCc1cc3c(cc1-2)OCO3.[Cl-] | > 5 µg/mL | 43.46 | 43.24 | 49.29 | > 5 µg/mL | -16.26 | > 5 µg/mL | > 5 µg/mL |  |  |  |  | 
CCCCCCCCCCc1c2[n+](cc3c4c(ccc13)OCO4)CCc1cc3c(cc1-2)OCO3.[Cl-] | 4.31 µM | 89.98 | 71.93 | 75.26 | 1.83 µM | 61.31 | 1.81 µM | 1.43 µM |  |  |  |  | 
CCCCCCCCCCCc1c2[n+](cc3c4c(ccc13)OCO4)CCc1cc3c(cc1-2)OCO3.[Cl-] | 1.57 µM | 91.22 | 92.7 | 94.28 | 0.61 µM | 86.84 | 0.82 µM | 1.22 µM | 3 | 11 | 4 | 2 | 
CCCCCCCCCCCCc1c2[n+](cc3c4c(ccc13)OCO4)CCc1cc3c(cc1-2)OCO3.[Cl-] | 1.43 µM | 87.63 | 91.28 | 94.03 | 0.59 µM | 84.73 | 1.03 µM | 1.32 µM |  |  |  |  | 
Fc1cccc(Cc2c3[n+](cc4c5c(ccc24)OCO5)CCc2cc4c(cc2-3)OCO4)c1.[Cl-] |  | 4.06 | 4.59 | 6.81 | > 10 µM |  | > 10 µM | > 10 µM |  |  |  |  | > 10
Fc1ccccc1Cc1c2[n+](cc3c4c(ccc13)OCO4)CCc1cc3c(cc1-2)OCO3.[Cl-] |  | 6.94 | 26.26 | 18.8 | > 10 µM |  | > 10 µM | > 10 µM |  |  |  |  | > 10
Fc1ccc(Cc2c3[n+](cc4c5c(ccc24)OCO5)CCc2cc4c(cc2-3)OCO4)c(F)c1.[Cl-] |  | 5.45 | 1.19 | 5.86 | > 10 µM |  | > 10 µM | > 10 µM |  |  |  |  | > 10
FC(F)(F)c1cccc(Cc2c3[n+](cc4c5c(ccc24)OCO5)CCc2cc4c(cc2-3)OCO4)c1.[Cl-] |  | 5.98 | -1.37 | 7.78 | > 10 µM |  | > 10 µM | > 10 µM |  |  |  |  | > 10
FC(F)(F)c1cc(Cc2c3[n+](cc4c5c(ccc24)OCO5)CCc2cc4c(cc2-3)OCO4)cc(C(F)(F)F)c1.[Cl-] |  | 3.61 | -5.72 | 3.45 | > 10 µM |  | > 10 µM | > 10 µM |  |  |  |  | > 10
N#Cc1ccc(Cc2c3[n+](cc4c5c(ccc24)OCO5)CCc2cc4c(cc2-3)OCO4)cc1.[Cl-] |  | 4.03 | 3.69 | 2 | > 10 µM |  | > 10 µM | > 10 µM |  |  |  |  | > 10
O=[N+]([O-])c1ccc(Cc2c3[n+](cc4c5c(ccc24)OCO5)CCc2cc4c(cc2-3)OCO4)cc1.[Cl-] |  | -0.12 | -3.7 | 2.27 | > 10 µM |  | > 10 µM | > 10 µM |  |  |  |  | > 10
COc1ccc(Cc2c3[n+](cc4c5c(ccc24)OCO5)CCc2cc4c(cc2-3)OCO4)cc1.[Cl-] |  | 5.99 | 10.21 | 11.53 | > 10 µM |  | > 10 µM | > 10 µM |  |  |  |  | > 10
Cc1ccc(Cc2c3[n+](cc4c5c(ccc24)OCO5)CCc2cc4c(cc2-3)OCO4)cc1.[Cl-] |  | 12.33 | 15.16 | 26.58 | > 10 µM |  | > 10 µM | > 10 µM |  |  |  |  | > 10
[Cl-].c1ccc2cc(Cc3c4[n+](cc5c6c(ccc35)OCO6)CCc3cc5c(cc3-4)OCO5)ccc2c1 |  | 11.78 | 8.33 | 32.22 | > 10 µM |  | > 10 µM | > 10 µM |  |  |  |  | > 10
CCOC(=O)c1c2[n+](cc3c4c(ccc13)OCO4)CCc1cc3c(cc1-2)OCO3.[Cl-] |  | 4.05 | 4 | 9.7 | > 10 µM |  | > 10 µM | > 10 µM |  |  |  |  | > 10
CCOC(=O)Cc1c2[n+](cc3c4c(ccc13)OCO4)CCc1cc3c(cc1-2)OCO3.[Cl-] |  | 8.43 | -9.3 | 1.25 | > 10 µM |  | > 10 µM | > 10 µM |  |  |  |  | > 10
[Cl-].c1c2c(cc3c1OCO3)-c1cc3ccc4c(c3c[n+]1CC2)OCO4 [COPTISINE CHLORIDE] | > 14.1 µM | 12.24 | 62.06 | 49.91 | > 14.1 µM | -10.71 | 5.59 µM | > 14.1 µM |  |  |  |  | 
O=c1[nH]cc(F)c(=O)[nH]1 [FLUOROURACIL] | 4.61 µM | 78.43 | 80.36 | 72.25 | 6.69 µM | 56.06 | 3.54 µM | 2.23 µM |  |  |  |  | 
